Experimental findings from PubChem BioAssay (NCI) are described below.

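Briefly, cells in 96-well plates were exposed to five compound concentrations for 48 h, and endpoints were estimated by linear interpolation. Abbreviation: GI50, concentration required for 50% inhibition of growth. The concentration for full growth arrest is given as TGI.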 Some results are limits rather than exact numbers.

Some test systems named below: ACHN renal; CCRF-CEM leukemia; COLO 205 colon; HL-60(TB) leukemia; K-562 leukemia; KM12 colon; MOLT-4 leukemia; NCI/ADR-RES ovarian; OVCAR-8 ovarian; RXF 393 renal; SF-268 CNS; SF-539 CNS; SW-620 colon; UACC-257 melanoma; UACC-62 melanoma; UO-31 renal.
Common to all, as to assay: inhibition of tumour cell growth, NCI panel, 48 h

As to `O=C(Nc1ccc(Cl)cc1)c1cc(S(=O)(=O)Nc2n[nH]c(Nc3ccc4ccccc4c3)n2)c(SSc2cc(Cl)c(C(=O)Nc3ccc(Cl)cc3)cc2S(=O)(=O)Nc2n[nH]c(Nc3ccc4ccccc4c3)n2)cc1Cl`, the TGI with ACHN renal is 53.9 µM; with CCRF-CEM leukemia, 43.6 µM; in the experiment on COLO 205 colon, 38.8 µM; in the experiment on HL-60(TB) leukemia, more than 63 µM; with K-562 leukemia it was 47.3 µM; in the experiment on KM12 colon, 50.4 µM. For the same compound, the TGI in the experiment with MOLT-4 leukemia is 42.3 µM; in the experiment with NCI/ADR-RES ovarian it was more than 85.4 µM; in the experiment on OVCAR-8 ovarian, more than 71.9 µM; in the experiment with RXF 393 renal, 79.9 µM; in the experiment with SF-268 CNS, more than 100 µM; with SF-539 CNS it was 60.5 µM. For the same compound, the TGI in the experiment with SW-620 colon was 49.8 µM; with UACC-257 melanoma it was more than 96.4 µM; in the experiment on UACC-62 melanoma, 51.7 µM; in the experiment with UO-31 renal, 65.3 µM.

As for `CCOC(=O)CC[C@H](N)C(=O)N[C@@H](Cc1ccc(N(CCCl)CCCl)cc1)C(=O)OCC`, the TGI in the experiment with ACHN renal was 1.72 µM; in the experiment on CCRF-CEM leukemia, 4.5 µM; in the experiment with COLO 205 colon it was 2.3 µM; in the experiment with HL-60(TB) leukemia, 1.33 µM; with K-562 leukemia, more than 33 µM; in the experiment with KM12 colon it was 11.6 µM. In addition, the TGI amounted to 3.61 µM in the experiment with MOLT-4 leukemia; 21.1 µM with NCI/ADR-RES ovarian; 1.99 µM in the experiment with OVCAR-8 ovarian; 2.14 µM with RXF 393 renal; 7.07 µM in the experiment on SF-268 CNS; 2.8 µM in the experiment with SF-539 CNS. Further, the TGI in the experiment on SW-620 colon amounted to 5.87 µM; in the experiment with UACC-257 melanoma it was 5.09 µM; in the experiment with UACC-62 melanoma it was 1.84 µM; in the experiment with UO-31 renal it was 3.44 µM. The GI50 with NCI/ADR-RES ovarian is 3.7 µM; in the experiment with OVCAR-8 ovarian it was 0.564 µM.

Turning to `Cn1c(-c2cccs2)cc(-c2cccs2)c1-c1cccs1`, the TGI is more than 100 µM in the experiment with ACHN renal; more than 100 µM with CCRF-CEM leukemia; 34.1 µM in the experiment on COLO 205 colon; more than 100 µM in the experiment with HL-60(TB) leukemia; more than 100 µM in the experiment with K-562 leukemia; more than 100 µM in the experiment on KM12 colon. Besides, the TGI in the experiment on MOLT-4 leukemia, in the experiment with NCI/ADR-RES ovarian, in the experiment on OVCAR-8 ovarian, in the experiment on RXF 393 renal, in the experiment on SF-268 CNS and with SF-539 CNS was more than 100 µM in each case. Besides, the TGI in the experiment on SW-620 colon, with UACC-257 melanoma, with UACC-62 melanoma and with UO-31 renal was more than 100 µM each time.

As to `CCCCCCCCCCCCCCCCP(=O)(O)OCC(N)C(=O)O` (configuration not stated), the TGI in the experiment on ACHN renal was 68.8 µM; in the experiment with CCRF-CEM leukemia, more than 100 µM; with COLO 205 colon, more than 100 µM; in the experiment with HL-60(TB) leukemia, 39.2 µM; in the experiment on K-562 leukemia, more than 100 µM; in the experiment on KM12 colon it was 43.7 µM. In addition, the TGI with MOLT-4 leukemia was 42.4 µM; in the experiment on NCI/ADR-RES ovarian it was more than 100 µM; with OVCAR-8 ovarian, more than 100 µM; in the experiment on RXF 393 renal, 75.1 µM; with SF-268 CNS it was 74 µM; in the experiment on SF-539 CNS it was 72.3 µM. Further, the TGI in the experiment with SW-620 colon is more than 100 µM; with UACC-257 melanoma, more than 100 µM; in the experiment on UACC-62 melanoma, more than 100 µM; in the experiment with UO-31 renal, 31.7 µM.

As to `O=C1CC(Br)c2c(Br)sc(Br)c21` (configuration not stated), the TGI is 31.6 µM in the experiment on ACHN renal; 9.42 µM with CCRF-CEM leukemia; 33.9 µM with COLO 205 colon; 39.3 µM in the experiment on HL-60(TB) leukemia; 29.9 µM in the experiment with K-562 leukemia; 49 µM in the experiment on KM12 colon. Also, the TGI in the experiment on MOLT-4 leukemia is 25.5 µM; in the experiment on NCI/ADR-RES ovarian it was more than 100 µM; in the experiment with OVCAR-8 ovarian it was 29.6 µM; in the experiment on RXF 393 renal it was 32.9 µM; in the experiment with SF-268 CNS, 62.4 µM; in the experiment with SF-539 CNS, 43.7 µM. In addition, the TGI turned out to be 26.5 µM in the experiment with SW-620 colon, 29.1 µM in the experiment with UACC-257 melanoma, 30.8 µM in the experiment on UACC-62 melanoma and 34.7 µM in the experiment on UO-31 renal.
